In the experiment the test system is IFNα-induced STAT phosphorylation (pSTAT5) in human whole blood, CD3 positive population. Kind of experiment: IFNα-Induced STAT Phosphorylation in Human Whole Blood. It counts as cell-based. As to conditions: 1 h incubation with compound, 1000 U/mL recombinant human IFNα A/D for 15 min, pSTAT5 (pY694) median fluorescence in CD3 positive cells, read-out: Human WB IFNα-Induced Stat Phosph. (IC50). On the procedure:
IFNα-Induced STAT Phosphorylation in Human Whole Blood
After an hour long incubation with compound, human whole blood (drawn with either EDTA or ACD-A as anti-coagulant) was stimulated with 1000 U/mL recombinant human IFNα A/D (R&D Systems 11200-2) for 15 min. The stimulation was stopped by adding Fix/Lyse buffer (BD 558049). Cells were stained with a CD3 FITC antibody (BD 555916), washed, and permeabilized on ice using Perm III buffer (BD 558050). Cells were then stained with an Alexa-Fluor 647 pSTAT5 (pY694) antibody (BD 612599) for 30 min prior to analysis on the FACS Canto II. The amount of pSTAT5 expression was quantitated by median fluorescence intensity after gating on the CD3 positive population.
As a reminder, the IC50 is the concentration that gives 50% inhibition. For the compound `[2H]C([2H])([2H])NC(=O)c1nnc(NC(=O)OC)cc1Nc1cccc(-c2noc(CO)n2)c1OC` [Example 58], the concentration for half-maximal inhibition (IC50) stood at 1.86 µM.
Take `[2H]C([2H])([2H])NC(=O)c1nnc(NC(=O)OC)cc1Nc1cccc(-c2noc(CN3CCOCC3)n2)c1OC` [Example 59]: the IC50 came to 0.29 µM.
For the compound `COC(=O)Nc1cc(Nc2cccc(-c3noc(CN4CCN(C(=O)OC)CC4)n3)c2OC)c(C(N)=O)nn1` [Example 60], the IC50 was 0.14 µM.
`[2H]C([2H])([2H])NC(=O)c1nnc(NC(=O)OC)cc1Nc1cccc(-c2noc(CN3CCCCS3(=O)=O)n2)c1OC` [Example 61]: the concentration for half-maximal inhibition (IC50) was 0.06 µM.
On to `[2H]C([2H])([2H])NC(=O)c1nnc(NC(=O)OC)cc1Nc1cccc(-c2noc(CN(C)S(C)(=O)=O)n2)c1OC` [Example 62], for which the IC50 stood at 0.1 µM.
For `[2H]C([2H])([2H])NC(=O)c1nnc(NC(=O)OC)cc1Nc1cccc(-c2noc(C)n2)c1OC` [Example 63], the concentration for half-maximal inhibition (IC50) came to 0.97 µM.
Regarding `COC(=O)Nc1cc(Nc2cccc(-c3noc(CN4CCN(S(C)(=O)=O)CC4)n3)c2OC)c(C(N)=O)nn1` [Example 64], the IC50 is 0.1 µM.
On to `[2H]C([2H])([2H])NC(=O)c1nnc(NC(=O)OC)cc1Nc1cccc(-c2noc(CN3CCN(C(=O)OC)CC3)n2)c1OC` [Example 65], for which the IC50 turned out to be 0.33 µM.
Take `[2H]C([2H])([2H])NC(=O)c1nnc(NC(=O)OC)cc1Nc1cccc(-c2noc(CN3CCN(S(C)(=O)=O)CC3)n2)c1OC` [Example 66]: the IC50 stood at 0.13 µM.
With `COC(=O)Nc1cc(Nc2cccc(-c3noc(C)n3)c2OC)c(C(N)=O)nn1` [Example 67] the figure was 0.27 µM.
In the case of `[2H]C([2H])([2H])NC(=O)c1nnc(NC(=O)OC)cc1Nc1cccc(-c2noc(CN3CCCS3(=O)=O)n2)c1OC` [Example 68], the IC50 was found to be 0.2 µM.
On to `[2H]C([2H])([2H])NC(=O)c1nnc(NC(=O)OC)cc1Nc1cccc(-c2noc(CCS(C)(=O)=O)n2)c1OC` [Example 69], for which the IC50 came to 1.03 µM.
The result for `[2H]C([2H])([2H])NC(=O)c1nnc(NC(=O)OC)cc1Nc1cccc(-c2noc(CN3CCOC3=O)n2)c1OC` [Example 70] reads 1.15 µM; that for `[2H]C([2H])([2H])NC(=O)c1cnc(NC(=O)OC)cc1Nc1cccc(-c2noc(CN3CCOCC3)n2)c1OC` [Example 71], 0.3 µM; that for `[2H]C([2H])([2H])NC(=O)c1cnc(NC(=O)NCC)cc1Nc1cccc(-c2noc(C)n2)c1OC` [Example 72], 0.14 µM.
For the compound `[2H]C([2H])([2H])NC(=O)c1cnc(NC(=O)OC)cc1Nc1cccc(-c2noc(C)n2)c1OC` [Example 73], the half-maximal inhibitory concentration (IC50) came out at 0.77 µM.
With `[2H]C([2H])([2H])NC(=O)c1cnc(NC(=O)NC)cc1Nc1cccc(-c2noc(C)n2)c1OC` [Example 74] the figure was 0.21 µM; with `[2H]C([2H])([2H])NC(=O)c1nnc(NC(=O)NCCN(C)C)cc1Nc1cccc(-c2ncn(C)n2)c1OC` [Example 75], 0.47 µM.
With `[2H]C([2H])([2H])NC(=O)c1cnc(NC(=O)NCCOC)cc1Nc1cccc(-c2noc(C)n2)c1OC` [Example 76] the figure was 0.16 µM; with `[2H]C([2H])([2H])NC(=O)c1nnc(NC(=O)NC2CC2)cc1Nc1cccc(-c2noc(C)n2)c1OC` [Example 77], 0.21 µM.

(Values after patent US20230150979A1, “AMIDE-DISUBSTITUTED PYRIDINE OR PYRIDAZINE COMPOUNDS” (BRISTOL-MYERS SQUIBB COMPANY, priority 2019, published 2023).)
